Measured values as given in ChEMBL document CHEMBL4507262, “Data for DCP probe A-1596586” (2021).

Tests used:
[1] = molecular target: D(1A) dopamine receptor (Homo sapiens) (UniProt P21728); assay: D1 (h) Eurofins-Cerep binding assay; parameters: ligand concentration 0.3 nM; settings: filed as antagonist, Compound concentration 10.0 uM
[2] = molecular target: Motilin receptor (Homo sapiens) (UniProt O43193); assay: motilin (h Eurofins-Cerep binding assay; parameters: ligand concentration 0.05 nM; settings: filed as agonist, Compound concentration 10.0 uM
Rattus norvegicus = species: Rattus norvegicus; assay: SKCa channel Eurofins-Cerep binding assay; parameters: ligand concentration 0.007 nM; settings: filed as antagonist, Compound concentration 10.0 uM
[3] = test system: Tyrosine-protein kinase ABL1 (Homo sapiens), P00519 [F317I]; settings: Compound concentration 1000.0 nM
[4] = molecular target: Activin receptor type-1-like (Homo sapiens) (UniProt P37023); settings: Compound concentration 1000.0 nM
[5] = molecular target: Atypical kinase COQ8B, mitochondrial (Homo sapiens) (UniProt Q96D53); settings: Compound concentration 1000.0 nM
[6] = molecular target: Cytoplasmic tyrosine-protein kinase BMX (Homo sapiens) (UniProt P51813); settings: Compound concentration 1000.0 nM
[7] = molecular target: Calcium/calmodulin-dependent protein kinase type 1G (Homo sapiens) (UniProt Q96NX5); settings: Compound concentration 1000.0 nM
[8] = molecular target: Cyclin-dependent kinase 13 (Homo sapiens) (UniProt Q14004); settings: Compound concentration 1000.0 nM
[9] = molecular target: Serine/threonine-protein kinase DCLK3 (Homo sapiens) (UniProt Q9C098); settings: Compound concentration 1000.0 nM
[10] = test system: Epidermal growth factor receptor (Homo sapiens), P00533 [UNDEFINED MUTATION]; settings: Compound concentration 1000.0 nM
[11] = molecular target: Ephrin type-A receptor 6 (Homo sapiens) (UniProt Q9UF33); settings: Compound concentration 1000.0 nM
[12] = molecular target: Ephrin type-B receptor 2 (Homo sapiens) (UniProt P29323); settings: Compound concentration 1000.0 nM
[13] = molecular target: Mitogen-activated protein kinase 4 (Homo sapiens) (UniProt P31152); settings: Compound concentration 1000.0 nM
[14] = molecular target: Tyrosine-protein kinase Fes/Fps (Homo sapiens) (UniProt P07332); settings: Compound concentration 1000.0 nM
[15] = molecular target: Glycogen synthase kinase-3 alpha (Homo sapiens) (UniProt P49840); settings: Compound concentration 1000.0 nM
[16] = molecular target: Homeodomain-interacting protein kinase 4 (Homo sapiens) (UniProt Q8NE63); settings: Compound concentration 1000.0 nM
[17] = molecular target: Hormonally up-regulated neu tumor-associated kinase (Homo sapiens) (UniProt P57058); settings: Compound concentration 1000.0 nM
[18] = molecular target: Serine/threonine-protein kinase ICK (Homo sapiens) (UniProt Q9UPZ9); settings: Compound concentration 1000.0 nM
[19] = molecular target: Inhibitor of nuclear factor kappa-B kinase subunit alpha (Homo sapiens) (UniProt O15111); settings: Compound concentration 1000.0 nM
[20] = molecular target: Interleukin-1 receptor-associated kinase 3 (Homo sapiens) (UniProt Q9Y616); settings: Compound concentration 1000.0 nM
[21] = molecular target: Interleukin-1 receptor-associated kinase 4 (Homo sapiens) (UniProt Q9NWZ3); settings: Compound concentration 1000.0 nM
[22] = test system: Mast/stem cell growth factor receptor Kit (Homo sapiens), P10721 [L576P]; settings: Compound concentration 1000.0 nM
[23] = test system: Mast/stem cell growth factor receptor Kit (Homo sapiens), P10721 [V559D,T670I]; settings: Compound concentration 1000.0 nM
[24] = molecular target: Mast/stem cell growth factor receptor Kit (Homo sapiens) (UniProt P10721); settings: Compound concentration 1000.0 nM
[25] = molecular target: Tyrosine-protein kinase Lck (Homo sapiens) (UniProt P06239); settings: Compound concentration 1000.0 nM
[26] = molecular target: Serine/threonine-protein kinase 10 (Homo sapiens) (UniProt O94804); settings: Compound concentration 1000.0 nM
[27] = molecular target: Mitogen-activated protein kinase kinase kinase 1 (Homo sapiens) (UniProt Q13233); settings: Compound concentration 1000.0 nM
[28] = molecular target: Mitogen-activated protein kinase kinase kinase kinase 3 (Homo sapiens) (UniProt Q8IVH8); settings: Compound concentration 1000.0 nM
[29] = test system: Hepatocyte growth factor receptor (Homo sapiens), P08581 [Y1235D]; settings: Compound concentration 1000.0 nM
[30] = molecular target: Serine/threonine-protein kinase PAK 3 (Homo sapiens) (UniProt O75914); settings: Compound concentration 1000.0 nM
[31] = molecular target: Cyclin-dependent kinase 2 homolog (Plasmodium falciparum (isolate 3D7)) (UniProt P61075); settings: Compound concentration 1000.0 nM
[32] = test system: Phosphatidylinositol 4,5-bisphosphate 3-kinase catalytic subunit alpha isoform (Homo sapiens), P42336 [H1047Y]; settings: Compound concentration 1000.0 nM
[33] = molecular target: Serine/threonine-protein kinase pim-1 (Homo sapiens) (UniProt P11309); settings: Compound concentration 1000.0 nM
[34] = molecular target: Serine/threonine-protein kinase PRP4 homolog (Homo sapiens) (UniProt Q13523); settings: Compound concentration 1000.0 nM
[35] = test system: Proto-oncogene tyrosine-protein kinase receptor Ret (Homo sapiens), P07949 [M918T]; settings: Compound concentration 1000.0 nM
[36] = molecular target: Ribosomal protein S6 kinase alpha-4 (Homo sapiens) (UniProt O75676); settings: Compound concentration 1000.0 nM
[37] = molecular target: Ribosomal protein S6 kinase alpha-6 (Homo sapiens) (UniProt Q9UK32); settings: Compound concentration 1000.0 nM
[38] = molecular target: Phosphatidylinositol 3-kinase catalytic subunit type 3 (Homo sapiens) (UniProt Q8NEB9); settings: Compound concentration 1000.0 nM
[39] = molecular target: Serine/threonine-protein kinase 32B (Homo sapiens) (UniProt Q9NY57); settings: Compound concentration 1000.0 nM
[40] = molecular target: Mitogen-activated protein kinase kinase kinase 19 (Homo sapiens) (UniProt Q56UN5); settings: Compound concentration 1000.0 nM
[41] = molecular target: 5-hydroxytryptamine receptor 1B (Homo sapiens) (UniProt P28222); settings: Compound concentration 10.0 uM

Sequence of Cytoplasmic tyrosine-protein kinase BMX (Homo sapiens) (P51813 whole entry): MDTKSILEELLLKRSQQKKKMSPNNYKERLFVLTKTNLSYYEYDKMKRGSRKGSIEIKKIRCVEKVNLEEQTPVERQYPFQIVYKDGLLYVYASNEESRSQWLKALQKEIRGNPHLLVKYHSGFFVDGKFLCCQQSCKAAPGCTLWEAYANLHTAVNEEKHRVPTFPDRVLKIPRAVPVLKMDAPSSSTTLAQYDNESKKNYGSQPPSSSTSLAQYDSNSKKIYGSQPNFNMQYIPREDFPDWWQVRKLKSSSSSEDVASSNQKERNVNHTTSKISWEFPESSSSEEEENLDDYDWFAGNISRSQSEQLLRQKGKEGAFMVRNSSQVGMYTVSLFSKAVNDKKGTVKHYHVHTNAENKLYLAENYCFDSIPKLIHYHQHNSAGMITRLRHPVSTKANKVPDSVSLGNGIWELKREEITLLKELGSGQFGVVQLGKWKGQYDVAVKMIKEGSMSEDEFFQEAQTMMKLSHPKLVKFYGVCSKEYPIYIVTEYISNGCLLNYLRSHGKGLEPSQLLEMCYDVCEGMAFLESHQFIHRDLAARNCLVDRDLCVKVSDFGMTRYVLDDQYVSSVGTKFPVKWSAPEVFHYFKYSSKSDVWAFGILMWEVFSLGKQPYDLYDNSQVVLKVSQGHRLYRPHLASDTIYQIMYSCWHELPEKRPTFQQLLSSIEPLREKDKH
Sequence of Mast/stem cell growth factor receptor Kit (Homo sapiens), P10721 [L576P] (P10721 whole entry L576P): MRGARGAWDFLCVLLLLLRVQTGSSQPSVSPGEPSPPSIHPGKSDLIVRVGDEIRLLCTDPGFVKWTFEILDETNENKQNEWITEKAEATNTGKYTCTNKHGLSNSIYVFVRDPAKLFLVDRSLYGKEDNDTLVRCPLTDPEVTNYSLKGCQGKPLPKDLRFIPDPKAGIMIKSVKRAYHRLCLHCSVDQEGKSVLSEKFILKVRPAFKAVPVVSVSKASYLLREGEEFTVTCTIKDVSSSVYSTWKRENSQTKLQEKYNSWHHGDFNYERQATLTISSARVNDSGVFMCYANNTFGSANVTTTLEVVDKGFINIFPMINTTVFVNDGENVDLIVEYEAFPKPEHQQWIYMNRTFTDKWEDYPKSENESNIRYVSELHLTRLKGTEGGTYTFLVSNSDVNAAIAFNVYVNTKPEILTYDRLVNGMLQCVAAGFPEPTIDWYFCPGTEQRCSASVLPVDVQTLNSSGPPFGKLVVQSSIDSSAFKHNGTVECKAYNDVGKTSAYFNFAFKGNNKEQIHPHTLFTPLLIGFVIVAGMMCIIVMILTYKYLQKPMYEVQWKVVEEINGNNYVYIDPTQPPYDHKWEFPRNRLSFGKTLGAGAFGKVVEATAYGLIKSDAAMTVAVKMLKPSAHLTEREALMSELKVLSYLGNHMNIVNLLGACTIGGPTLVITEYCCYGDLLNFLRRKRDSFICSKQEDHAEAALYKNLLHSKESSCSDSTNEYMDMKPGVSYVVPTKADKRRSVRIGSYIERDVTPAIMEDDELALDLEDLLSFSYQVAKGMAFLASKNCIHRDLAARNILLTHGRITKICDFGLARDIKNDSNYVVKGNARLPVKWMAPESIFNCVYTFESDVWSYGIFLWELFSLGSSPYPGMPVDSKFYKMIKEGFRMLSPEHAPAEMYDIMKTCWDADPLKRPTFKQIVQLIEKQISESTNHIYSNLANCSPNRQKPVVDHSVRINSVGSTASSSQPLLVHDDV
Sequence of Homeodomain-interacting protein kinase 4 (Homo sapiens) (Q8NE63 whole entry): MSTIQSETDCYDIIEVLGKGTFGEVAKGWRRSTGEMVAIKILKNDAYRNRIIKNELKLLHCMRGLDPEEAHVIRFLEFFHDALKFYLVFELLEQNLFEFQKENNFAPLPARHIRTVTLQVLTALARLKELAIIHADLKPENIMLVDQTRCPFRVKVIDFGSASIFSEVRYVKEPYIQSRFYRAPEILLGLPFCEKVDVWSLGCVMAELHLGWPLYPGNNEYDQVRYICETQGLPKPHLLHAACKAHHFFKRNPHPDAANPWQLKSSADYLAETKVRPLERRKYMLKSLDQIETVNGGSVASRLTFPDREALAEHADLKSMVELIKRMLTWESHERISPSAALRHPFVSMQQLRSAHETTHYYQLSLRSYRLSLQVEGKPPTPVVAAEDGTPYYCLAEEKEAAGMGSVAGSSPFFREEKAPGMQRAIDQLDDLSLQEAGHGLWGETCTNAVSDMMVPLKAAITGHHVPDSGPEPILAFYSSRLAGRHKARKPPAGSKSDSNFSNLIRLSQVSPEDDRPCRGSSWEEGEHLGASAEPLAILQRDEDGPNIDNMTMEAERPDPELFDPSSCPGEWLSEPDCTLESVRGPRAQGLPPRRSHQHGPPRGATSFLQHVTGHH
Sequence of Glycogen synthase kinase-3 alpha (Homo sapiens) (P49840 2-483 limits assumed): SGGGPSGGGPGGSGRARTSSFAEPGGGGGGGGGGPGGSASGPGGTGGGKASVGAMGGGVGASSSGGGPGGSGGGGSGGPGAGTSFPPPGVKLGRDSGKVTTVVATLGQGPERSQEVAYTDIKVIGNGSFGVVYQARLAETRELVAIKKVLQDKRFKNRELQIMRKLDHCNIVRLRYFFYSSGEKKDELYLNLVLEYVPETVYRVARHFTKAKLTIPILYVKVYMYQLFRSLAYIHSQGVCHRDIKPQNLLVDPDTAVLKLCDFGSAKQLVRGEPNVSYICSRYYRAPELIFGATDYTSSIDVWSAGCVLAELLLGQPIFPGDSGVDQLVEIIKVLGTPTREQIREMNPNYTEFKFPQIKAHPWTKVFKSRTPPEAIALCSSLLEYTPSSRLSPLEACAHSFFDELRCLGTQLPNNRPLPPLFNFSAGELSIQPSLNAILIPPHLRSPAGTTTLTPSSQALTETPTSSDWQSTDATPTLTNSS
Sequence of Mitogen-activated protein kinase 4 (Homo sapiens) (P31152 whole entry): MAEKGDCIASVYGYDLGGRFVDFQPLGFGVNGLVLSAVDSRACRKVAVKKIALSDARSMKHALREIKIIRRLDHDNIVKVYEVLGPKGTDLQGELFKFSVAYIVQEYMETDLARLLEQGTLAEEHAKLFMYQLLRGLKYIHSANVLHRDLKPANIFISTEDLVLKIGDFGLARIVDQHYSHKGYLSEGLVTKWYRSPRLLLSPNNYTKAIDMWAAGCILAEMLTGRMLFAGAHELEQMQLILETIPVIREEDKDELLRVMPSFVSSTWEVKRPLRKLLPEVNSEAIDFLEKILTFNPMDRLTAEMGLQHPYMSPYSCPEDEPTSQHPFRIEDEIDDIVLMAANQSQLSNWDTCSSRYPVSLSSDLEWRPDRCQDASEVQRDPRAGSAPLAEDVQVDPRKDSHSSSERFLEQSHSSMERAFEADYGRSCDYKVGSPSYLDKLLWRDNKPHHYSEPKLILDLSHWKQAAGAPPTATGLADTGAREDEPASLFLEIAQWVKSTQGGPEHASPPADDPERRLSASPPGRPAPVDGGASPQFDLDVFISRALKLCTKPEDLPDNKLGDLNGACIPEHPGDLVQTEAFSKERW
Sequence of D(1A) dopamine receptor (Homo sapiens) (P21728 whole entry): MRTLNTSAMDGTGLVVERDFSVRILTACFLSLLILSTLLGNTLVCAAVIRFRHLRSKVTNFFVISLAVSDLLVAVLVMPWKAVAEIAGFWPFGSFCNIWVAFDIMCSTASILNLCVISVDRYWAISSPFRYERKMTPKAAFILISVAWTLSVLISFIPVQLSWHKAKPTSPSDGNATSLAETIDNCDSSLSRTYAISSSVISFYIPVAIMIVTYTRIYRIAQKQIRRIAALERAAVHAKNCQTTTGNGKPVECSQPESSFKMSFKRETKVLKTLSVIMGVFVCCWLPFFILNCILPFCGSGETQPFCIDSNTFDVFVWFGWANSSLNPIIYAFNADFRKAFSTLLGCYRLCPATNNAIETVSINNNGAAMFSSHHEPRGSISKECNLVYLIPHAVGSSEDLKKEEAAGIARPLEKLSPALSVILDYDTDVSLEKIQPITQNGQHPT
Sequence of Ephrin type-B receptor 2 (Homo sapiens) (P29323 whole entry): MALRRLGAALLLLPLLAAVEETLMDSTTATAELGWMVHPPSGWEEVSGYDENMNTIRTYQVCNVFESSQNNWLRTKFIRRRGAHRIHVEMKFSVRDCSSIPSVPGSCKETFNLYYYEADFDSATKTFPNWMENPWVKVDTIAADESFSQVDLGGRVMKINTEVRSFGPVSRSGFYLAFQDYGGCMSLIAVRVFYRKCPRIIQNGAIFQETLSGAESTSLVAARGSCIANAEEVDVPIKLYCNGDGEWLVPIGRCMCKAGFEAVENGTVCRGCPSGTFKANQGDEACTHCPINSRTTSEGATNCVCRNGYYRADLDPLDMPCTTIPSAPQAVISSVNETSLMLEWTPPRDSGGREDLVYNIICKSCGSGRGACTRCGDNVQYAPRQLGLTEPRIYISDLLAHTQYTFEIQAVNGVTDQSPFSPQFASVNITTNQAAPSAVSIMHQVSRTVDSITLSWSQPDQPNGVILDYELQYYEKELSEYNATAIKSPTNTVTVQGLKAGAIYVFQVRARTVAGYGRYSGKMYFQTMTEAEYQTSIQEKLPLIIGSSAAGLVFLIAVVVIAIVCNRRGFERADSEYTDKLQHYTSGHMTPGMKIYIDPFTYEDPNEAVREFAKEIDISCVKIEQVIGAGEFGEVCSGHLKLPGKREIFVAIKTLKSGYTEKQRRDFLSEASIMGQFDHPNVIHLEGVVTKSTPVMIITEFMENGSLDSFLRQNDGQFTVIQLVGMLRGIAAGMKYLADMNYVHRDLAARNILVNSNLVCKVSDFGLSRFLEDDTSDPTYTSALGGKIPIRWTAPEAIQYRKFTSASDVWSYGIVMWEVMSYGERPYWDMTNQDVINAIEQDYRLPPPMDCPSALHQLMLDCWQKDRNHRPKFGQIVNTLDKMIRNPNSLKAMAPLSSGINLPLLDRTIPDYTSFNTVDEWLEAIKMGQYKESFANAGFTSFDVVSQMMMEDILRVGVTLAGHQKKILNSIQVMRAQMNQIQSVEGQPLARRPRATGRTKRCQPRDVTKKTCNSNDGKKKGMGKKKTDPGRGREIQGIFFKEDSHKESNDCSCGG
Sequence of Mast/stem cell growth factor receptor Kit (Homo sapiens), P10721 [V559D,T670I] (P10721 whole entry V559D/T670I): as the sequence (P10721 whole entry L576P) above, with V559D, P576L, T670I counted along it
Sequence of Mast/stem cell growth factor receptor Kit (Homo sapiens) (P10721 whole entry): as the sequence (P10721 whole entry L576P) above, with P576L counted along it

Question: What does the source list for `COc1ccc2c(c1)O[C@H](c1ccc(OC)c(OC)c1)C[C@@H]2NC(=O)C1(c2ccc3c(c2)OC(F)(F)O3)CC1` [A-1596584]?
Answer: % Inhibition of Control Specific Binding (Mean n=2) [1]: 7.4%; % Inhibition of Control Specific Binding (Mean n=2) [2]: 26.4%; % Inhibition of Control Specific Binding (Mean n=2) (Rattus norvegicus): 4%; residual activity [3]: 100%; residual activity [4]: 90%; residual activity [5]: 63%; residual activity [6]: 100%; residual activity [7]: 100%; residual activity [8]: 100%; residual activity [9]: 100%; residual activity [10]: 59%; residual activity [11]: 100%; residual activity [12]: 84%; residual activity [13]: 100%; residual activity [14]: 97%; residual activity [15]: 100%; residual activity [16]: 91%; residual activity [17]: 72%; residual activity [18]: 80%; residual activity [19]: 89%; residual activity [20]: 86%; residual activity [21]: 100%; residual activity [22]: 100%; residual activity [23]: 100%; residual activity [24]: 99%; residual activity [25]: 100%; residual activity [26]: 100%; residual activity [27]: 100%; residual activity [28]: 100%; residual activity [29]: 100%; residual activity [30]: 100%; residual activity [31]: 92%; residual activity [32]: 100%; residual activity [33]: 100%; residual activity [34]: 56%; residual activity [35]: 99%; residual activity [36]: 100%; residual activity [37]: 87%; residual activity [38]: 88%; residual activity [39]: 100%; residual activity [40]: 100%; inhibition [41]: -1%

Question: Which results are given for `COc1ccc2c(c1)O[C@@H](c1ccc(OC)c(OC)c1)C[C@H]2NC(=O)C1(c2ccc3c(c2)OC(F)(F)O3)CC1` [A-1596586]?
Answer: % Inhibition of Control Specific Binding (Mean n=2) [1]: 14%; % Inhibition of Control Specific Binding (Mean n=2) [2]: 10.7%; % Inhibition of Control Specific Binding (Mean n=2) (Rattus norvegicus): 2.2%; residual activity [3]: 93%; residual activity [4]: 97%; residual activity [5]: 100%; residual activity [6]: 91%; residual activity [7]: 84%; residual activity [8]: 98%; residual activity [9]: 98%; residual activity [10]: 62%; residual activity [11]: 89%; residual activity [12]: 100%; residual activity [13]: 99%; residual activity [14]: 93%; residual activity [15]: 100%; residual activity [16]: 51%; residual activity [17]: 100%; residual activity [18]: 74%; residual activity [19]: 95%; residual activity [20]: 85%; residual activity [21]: 82%; residual activity [22]: 92%; residual activity [23]: 99%; residual activity [24]: 88%; residual activity [25]: 100%; residual activity [26]: 88%; residual activity [27]: 77%; residual activity [28]: 90%; residual activity [29]: 100%; residual activity [30]: 87%; residual activity [31]: 84%; residual activity [32]: 77%; residual activity [33]: 91%; residual activity [34]: 83%; residual activity [35]: 90%; residual activity [36]: 81%; residual activity [37]: 84%; residual activity [38]: 78%; residual activity [39]: 100%; residual activity [40]: 83%; inhibition [41]: -0.84%
